From patent US6489365B1, “Amidine derivatives, the preparation and use thereof as medicaments with Itb4 antagonistic effect” (Boehringer Ingelheim KG, priority 1992, dated 2002)

Tests used:
LTB4 receptors = biological target: T1, LTB4 receptors (Homo sapiens, UniProt Q15722); assay: U937 receptor binding test/LTB4; conditions: 3H-LTB4 (3 nM), vital U937 cells, incubation 2 hours at 0°C; read-out: Receptor binding U937-8 Ki
T1 construct: vital U937 cells (differentiated human monocytary cell line with naturally expressed LTB4 receptors); endogenous in cells; host or cells: U937 cells (differentiated, intact/vital)
Procedure: a) U937—Receptor Binding Test/LTB4
The binding of ^3H-LTB4 (3 nM) to vital U937 cells (differentiated human monocytary cell line with naturally expressed LTB4 receptors) is inhibited, in dosage dependent manner, by an increasing concentration of the test substance (incubation 2 hours at 0°C.). After the unbound ^3H-LTB4 has been separated off by membrane filtration, the radioactivity of the bound LTB4 receptor/^3H-LTB4 complex is quantified by scintillation measurement. The affinity (inhibition constant Kj) was determined by repeated adaptation of a displacement curve to the measurements (program: “coupled mass equilibria” on Wang computer).

[1] = system: neutrophilic granulocytes; assay: LTB4-induced aggregation of neutrophilic granulocytes in the guinea-pig (in vitro); format: cell-based; conditions: Cavia porcellus, 2 min, inhibition 2 minutes after incubation with test substance in polydiol/DMSO, read-out: LTB4-induced neutroph. Aggr. EC50
Procedure: b) Aggregation of Neutrophilic Granulocytes in the Guinea-pig
Indicated by LTB4 in vitro (increase in light transmission in the aggregometer, recorded in mm; each experiment repeated twice): inhibition 2 minutes after incubation with test substance in polydiol/DMSO.

[2] = system: LTB4-induced neutrophilic influx in the mouse ear; assay: Leukotrien-B4-induced accumulation of neutrophiles in the mouse ear; format: in vivo; conditions: po, read-out: LTB4-induced neutroph. Accum. p.o. ED50
Procedure: c) Leukotrien-B4-indicated Accumulation of Neutrophiles in the Mouse Ear
Evaluation of the neutrophilic influx by photometric measurement (mOD/min) of the myeloperoxidase activity (Bradley et al.: J. Invest. Dermatol. 78, 206, 1982) in the skin of the ear. Increase 6 hours after topical treatment of the left ear with LTB4 (250 ng on each side) compared with the right ear (2×5 μl acetone as solvent).
Substance administered by oral route in 1% tylose 300, 30 minutes before the LTB4 stimularion.

T1 sequence (Q15722 whole entry): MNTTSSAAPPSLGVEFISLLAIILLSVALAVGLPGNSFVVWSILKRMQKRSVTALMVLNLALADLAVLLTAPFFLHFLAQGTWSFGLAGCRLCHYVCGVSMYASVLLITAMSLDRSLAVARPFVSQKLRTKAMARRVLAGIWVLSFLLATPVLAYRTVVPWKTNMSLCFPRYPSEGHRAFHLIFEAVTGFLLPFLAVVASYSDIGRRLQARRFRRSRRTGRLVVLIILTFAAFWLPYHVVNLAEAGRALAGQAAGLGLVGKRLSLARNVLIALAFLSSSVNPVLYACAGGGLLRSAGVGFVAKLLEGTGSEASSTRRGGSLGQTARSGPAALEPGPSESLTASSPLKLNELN

SMILES: CCCc1c(OC)cccc1OCCCCOc1ccc(C(=N)N)cc1
- Ki (LTB4 receptors): 12 nM
- EC50 [1]: 1900 nM
- ED50 [2]: 0.8 mg/kg
